{"source": "ChEMBL document CHEMBL1240362", "about": "“Intrapulmonary pharmacokinetics of S-013420, a novel bicyclolide antibacterial, in healthy Japanese subjects” (Antimicrob Agents Chemother, 2010)", "type_in_all_cases": "functional", "key": {"Haemophilus influenzae": {"tested_on": "Haemophilus influenzae", "assay": "Antimicrobial activity against Haemophilus influenzae"}, "Streptococcus pneumoniae": {"tested_on": "Streptococcus pneumoniae", "assay": "Antimicrobial activity against Streptococcus pneumoniae"}, "Streptococcus pyogenes": {"tested_on": "Streptococcus pyogenes", "assay": "Antimicrobial activity against Streptococcus pyogenes"}, "Staphylococcus aureus": {"tested_on": "Staphylococcus aureus", "assay": "Antimicrobial activity against methicillin susceptible Staphylococcus aureus"}}, "data": [{"compound": "CC[C@H]1OC(=O)[C@H](C)C(=O)[C@H](C)[C@@H](O[C@@H]2O[C@H](C)C[C@H](N(C)C)[C@H]2O)[C@](C)(OC)C[C@@H](C)C(=O)[C@H](C)[C@H]2N(CCCCn3cnc(-c4cccnc4)c3)C(=O)O[C@]12C", "note": "[TELITHROMYCIN]", "values": [{"measurement": "MIC90", "setting": "Haemophilus influenzae", "value": 4, "unit": "mg/L"}]}, {"compound": "CC[C@H]1OC(=O)[C@H](C)[C@@H](O[C@H]2C[C@@](C)(OC)[C@@H](O)[C@H](C)O2)[C@H](C)[C@@H](O[C@@H]2O[C@H](C)C[C@H](N(C)C)[C@H]2O)[C@](C)(O)C[C@@H](C)CN(C)[C@H](C)[C@@H](O)[C@]1(C)O", "note": "[AZITHROMYCIN]", "values": [{"measurement": "MIC90", "setting": "Streptococcus pneumoniae", "value": 1, "unit": "mg/L"}, {"measurement": "MIC90", "setting": "Streptococcus pyogenes", "value": 1, "unit": "mg/L"}, {"measurement": "MIC90", "setting": "Staphylococcus aureus", "value": 1, "unit": "mg/L"}]}, {"compound": "CC[C@H]1OC(=O)[C@H](C)[C@@H](O[C@H]2C[C@@](C)(OC)[C@@H](O)[C@H](C)O2)[C@H](C)[C@@H](O[C@@H]2O[C@H](C)C[C@H](N(C)C)[C@H]2O)[C@](C)(OC)C[C@@H](C)C(=O)[C@H](C)[C@@H](O)[C@]1(C)O", "note": "[CLARITHROMYCIN]", "values": [{"measurement": "MIC90", "setting": "Streptococcus pneumoniae; Streptococcus pneumoniae, read-out: MIC90", "value": 1, "unit": "mg/L"}, {"measurement": "MIC90", "setting": "Streptococcus pyogenes", "value": 1, "unit": "mg/L"}, {"measurement": "MIC90", "setting": "Staphylococcus aureus", "value": 1, "unit": "mg/L"}]}]}
